Experimental findings from patent publication US20240018110A1, “RADIOLABELED COMPOUNDS TARGETING THE PROSTATE-SPECIFIC MEMBRANE ANTIGEN” (THE UNIVERSITY OF BRITISH COLUMBIA, priority 2020, published 2024) are described below.

For series [1], the target named is PSMA (Homo sapiens, UniProt Q04609). The series can be described thus: In vitro competitive binding assay.
In series [2] the test system is LNCaP xenograft. The series can be described thus: Biodistribution of 68Ga-labeled compounds in mice bearing LNCaP xenograft. The class given is in vivo. The conditions noted are these: 1 h p.i. How it is done:
All chemicals and solvents were obtained from commercial sources, and used without further purification. PSMA-targeted peptides were synthesized using a solid phase approach on an AAPPTec (Louisville, KY) Endeavor 90 peptide synthesizer. Purification of peptides was performed on an Agilent 1260 Infinity II Preparative System equipped with a model 1260 Infinity II preparative binary pump, a model 1260 Infinity variable wavelength detector (set at 220 nm), and a 1290 Infinity II preparative open-bed fraction collector. The HPLC column used was a preparative column (Gemini, NX—C18, 5 μ, 50×30 mm) purchased from Phenomenex. The collected HPLC eluates containing the desired peptide were lyophilized using a Labconco (Kansas City, MO) FreeZone 4.5 Plus freeze-drier. Mass analyses were performed using a Waters LC-MS system with an ESI ion source. C18 Sep-Pak cartridges (1 cm^3, 50 mg) were obtained from Waters (Milford, MA). ^68Ga was eluted from an iThemba Labs (Somerset West, South Africa) generator. Radioactivity of ^68Ga-labeled peptides was measured using a Capintec (Ramsey, NJ) CRC®-25R/W dose calibrator, and the radioactivity of mouse tissues collected from biodistribution studies were counted using a Perkin Elmer (Waltham, MA) Wizard2 2480 automatic gamma counter.

PSMA, sequence (Q04609 whole entry): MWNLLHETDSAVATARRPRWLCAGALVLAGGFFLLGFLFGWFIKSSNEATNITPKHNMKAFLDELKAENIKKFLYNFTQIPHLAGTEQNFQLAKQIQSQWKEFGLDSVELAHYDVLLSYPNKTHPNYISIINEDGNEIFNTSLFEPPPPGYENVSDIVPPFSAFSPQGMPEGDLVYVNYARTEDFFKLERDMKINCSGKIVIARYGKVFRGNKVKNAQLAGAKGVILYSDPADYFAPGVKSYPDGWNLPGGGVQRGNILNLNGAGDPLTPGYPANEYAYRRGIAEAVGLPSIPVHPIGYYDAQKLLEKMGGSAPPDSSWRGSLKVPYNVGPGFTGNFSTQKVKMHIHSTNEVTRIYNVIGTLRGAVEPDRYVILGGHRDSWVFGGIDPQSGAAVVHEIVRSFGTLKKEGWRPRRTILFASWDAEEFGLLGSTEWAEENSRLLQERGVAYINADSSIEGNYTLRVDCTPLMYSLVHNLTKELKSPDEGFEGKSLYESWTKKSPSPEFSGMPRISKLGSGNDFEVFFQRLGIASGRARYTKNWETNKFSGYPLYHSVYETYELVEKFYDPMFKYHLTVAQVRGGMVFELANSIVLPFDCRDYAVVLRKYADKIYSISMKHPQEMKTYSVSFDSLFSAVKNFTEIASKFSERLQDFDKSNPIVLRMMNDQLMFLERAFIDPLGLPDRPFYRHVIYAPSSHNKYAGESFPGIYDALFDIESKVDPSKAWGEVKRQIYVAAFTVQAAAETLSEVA

In general, Ki refers to a dissociation constant, usually derived from enzyme kinetics or from competition with a known ligand. In series [1], `O=C(O)CCC[C@@H](OC(=O)N[C@@H](CCCCNC(=O)[C@H](Cc1c2ccccc2cc2ccccc12)NC(=O)[C@H]1CC[C@H](CNC(=O)CCc2ccc(O)c(CN(CCN(CC(=O)O)Cc3cc(CCC(=O)O)ccc3O)CC(=O)O)c2)CC1)C(=O)O)C(=O)O` [AR-2-113-2, HBED-CC-PSMA-Aad-carbamate] returned a Ki of 56.3 nM.
As for `O=C(O)CCC[C@@H](OC(=O)N[C@@H](CCCCNC(=O)[C@H](Cc1c2ccccc2cc2ccccc12)NC(=O)[C@H]1CC[C@H](CNC(=O)CN2CCN(CC(=O)O)CCN(CC(=O)O)CCN(CC(=O)O)CC2)CC1)C(=O)O)C(=O)O` [AR-2-050-2, DOTA-PSMA-Aad-carbamate], in series [1], the inhibition constant (Ki) is 240 nM.
The same measure, in the same setting: next, `O=C(O)CC[C@H](NC(=O)N[C@@H](C[C@@H]1C[C@H]1CNC(=O)[C@H](Cc1c2ccccc2cc2ccccc12)NC(=O)[C@H]1CC[C@H](CNC(=O)CN2CCN(CC(=O)O)CCN(CC(=O)O)CCN(CC(=O)O)CC2)CC1)C(=O)O)C(=O)O` [ADZ-4-101]: 2.42 nM; `O=C(O)CCC[C@H](NC(=O)N[C@@H](CSC[C@H](NC(=O)[C@H](Cc1c2ccccc2cc2ccccc12)NC(=O)C1CCC(CNC(=O)CN2CCN(CC(=O)O)CCN(CC(=O)O)CCN(CC(=O)O)CC2)CC1)C(=O)O)C(=O)O)C(=O)O` (stereo partly shown) [CCZ02032]: 3.2 nM; `O=C(O)CCC[C@H](NC(=O)N[C@@H](CCCCCNC(=O)[C@H](Cc1c2ccccc2cc2ccccc12)NC(=O)C1CCC(CNC(=O)CN2CCN(CC(=O)O)CCN(CC(=O)O)CCN(CC(=O)O)CC2)CC1)C(=O)O)C(=O)O` (stereo partly shown) [CCZ02010]: 17 nM.
In turn, `O=C(O)CCC[C@H](NC(=O)N[C@@H](CSC[C@@H](NC(=O)[C@H](Cc1c2ccccc2cc2ccccc12)NC(=O)C1CCC(CNC(=O)CN2CCN(CC(=O)O)CCN(CC(=O)O)CCN(CC(=O)O)CC2)CC1)C(=O)O)C(=O)O)C(=O)O` (stereo partly shown) [CCZ02033] came in with an inhibition constant (Ki) in series [1] of 461 nM.
`O=C(O)CCC[C@H](NC(=O)N[C@@H](CCCONC(=O)[C@H](Cc1c2ccccc2cc2ccccc12)NC(=O)C1CCC(CNC(=O)CN2CCN(CC(=O)O)CCN(CC(=O)O)CCN(CC(=O)O)CC2)CC1)C(=O)O)C(=O)O` (stereo partly shown) [CCZ02018] returned a Ki in series [1] of 1.61 ± 0.04 nM.
As to `O=C(O)CC[C@H](NC(=O)N[C@@H](C[C@H]1C[C@@H]1CNC(=O)[C@H](Cc1c2ccccc2cc2ccccc12)NC(=O)[C@H]1CC[C@H](CNC(=O)CN2CCN(CC(=O)O)CCN(CC(=O)O)CCN(CC(=O)O)CC2)CC1)C(=O)O)C(=O)O` [PD-6-49], in series [1], the Ki is 11.9 nM.
On the same count and under the same terms, for `O=C(O)CCC[C@H](OC(=O)N[C@@H](CCCCNC(=O)[C@H](Cc1c2ccccc2cc2ccccc12)NC(=O)[C@H]1CC[C@H](CNC(=O)CCc2ccc(O)c(CN(CCN(CC(=O)O)Cc3cc(CCC(=O)O)ccc3O)CC(=O)O)c2)CC1)C(=O)O)C(=O)O` [AR-2-113-1, HBED-CC-PSMA-Aad-carbamate] the value was 3.44 nM; for `O=C(O)CCC[C@H](NC(=O)N[C@@H](COCCNC(=O)[C@H](Cc1c2ccccc2cc2ccccc12)NC(=O)C1CCC(CNC(=O)CN2CCN(CC(=O)O)CCN(CC(=O)O)CCN(CC(=O)O)CC2)CC1)C(=O)O)C(=O)O` (stereo partly shown) [CCZ02011], 1.23 nM; for `O=C(O)CCC[C@H](OC(=O)N[C@@H](CCCCNC(=O)[C@H](Cc1c2ccccc2cc2ccccc12)NC(=O)[C@H]1CC[C@H](CNC(=O)CN2CCN(CC(=O)O)CCN(CC(=O)O)CCN(CC(=O)O)CC2)CC1)C(=O)O)C(=O)O` [AR-2-050-1, DOTA-PSMA-Aad-carbamate], 8.99 nM.
In the case of `O=C(O)CCCC(NC(=O)NC(CNC(=O)CNC(=O)C(Cc1c2ccccc2cc2ccccc12)NC(=O)C1CCC(CNC(=O)CN2CCN(CC(=O)O)CCN(CC(=O)O)CCN(CC(=O)O)CC2)CC1)C(=O)O)C(=O)O.[68Ga]` (stereo not shown) [68Ga-CCZ01198], the “Biodistribution, Adrenal (Avg)” value in series [2] (Adrenal) is recorded as 0.19 % ID/g. Moreover, the “Biodistribution, Blood (Avg)” value in series [2] (Blood) was 0.43 % ID/g. The “Biodistribution, Bone (Avg)” value in series [2] (Bone) was 0.07 % ID/g. The “Biodistribution, Brain (Avg)” value in series [2] (Brain) is reported as 0.01 % ID/g. In series [2] (Fat), the “Biodistribution, Fat (Avg)” value is 0.07 % ID/g. In series [2] (Heart), the “Biodistribution, Heart (Avg)” value is given as 0.11 % ID/g. Also, the “Biodistribution, Intestine (Avg)” value in series [2] (Intestine) is recorded as 0.16 % ID/g. Further, the “Biodistribution, Kidney (Avg)” value in series [2] (Kidney) amounted to 2.18 % ID/g. Moreover, in series [2] (LNCaP tumor), the “Biodistribution, LNCaP tumor (Avg)” value is listed as 4.84 % ID/g. Further, the “Biodistribution, Liver (Avg)” value in series [2] (Liver) is given as 0.15 % ID/g. Moreover, the “Biodistribution, Lungs (Avg)” value in series [2] (Lungs) is recorded as 0.32 % ID/g. Besides, the “Biodistribution, Muscle (Avg)” value in series [2] (Muscle) turned out to be 0.07 % ID/g. The “Biodistribution, Pancreas (Avg)” value in series [2] (Pancreas) is given as 0.08 % ID/g. In series [2] (Salivary gland), the “Biodistribution, Salivary gland (Avg)” value was 0.12 % ID/g. Also, the “Biodistribution, Seminal (Avg)” value in series [2] (Seminal) came out at 0.47 % ID/g. Moreover, the “Biodistribution, Spleen (Avg)” value in series [2] (Spleen) was 0.12 % ID/g. Besides, in series [2] (Stomach), the “Biodistribution, Stomach (Avg)” value was found to be 0.03 % ID/g. Besides, the “Biodistribution, Testes (Avg)” value in series [2] (Testes) is 0.14 % ID/g. Moreover, the “Biodistribution, Thyroid (Avg)” value in series [2] (Thyroid) came out at 0.13 % ID/g. Besides, the “Biodistribution, Urine (Avg)” value in series [2] (Urine) is 384.68 % ID/g.
